Here are results for seven compounds from ChEMBL document CHEMBL1177843, “Metal based biologically active compounds: design, synthesis, and antibacterial/antifungal/cytotoxic properties of triazole-derived Schiff bases and their oxovanadium(IV) complexes” (Eur J Med Chem, 2010).

The subject of data set [1] is Escherichia coli. Description: Antibacterial activity against Escherichia coli at 1 mg/ml after 24 hrs by agar-well diffusion method. To be noted: for zone of inhibition at 1000 µg/mL: Escherichia coli, 24 h, read-out: DIZ. The format is functional. In general terms: A growth-free zone around the sample is the usual read-out of agar diffusion tests.
Data set [2] has as its system Shigella flexneri. Nature of the data set: Antibacterial activity against Shigella flexneri at 1 mg/ml after 24 hrs by agar-well diffusion method. The format is functional. To be noted: for zone of inhibition at 1000 µg/mL: Shigella flexneri, 24 h, read-out: DIZ.
Data set [3] deals with Pseudomonas aeruginosa. Nature of the data set: Antibacterial activity against Pseudomonas aeruginosa at 1 mg/ml after 24 hrs by agar-well diffusion method. The format is functional. To be noted: for zone of inhibition at 1000 µg/mL: Pseudomonas aeruginosa, 24 h, read-out: DIZ.
Data set [4] relates to Salmonella enterica. Description: Antibacterial activity against Salmonella typhi at 1 mg/ml after 24 hrs by agar-well diffusion method. The class given is functional, Salmonella enterica subsp. enterica serovar Typhi. To be noted: for zone of inhibition at 1000 µg/mL: Salmonella enterica, 24 h, read-out: DIZ.
The subject of data set [5] is Staphylococcus aureus. Description: Antibacterial activity against Staphylococcus aureus at 1 mg/ml after 24 hrs by agar-well diffusion method. The format is functional. To be noted: for zone of inhibition at 1000 µg/mL: Staphylococcus aureus, 24 h, read-out: DIZ.
In data set [6] the test system is Bacillus subtilis. Nature of the data set: Antibacterial activity against Bacillus subtilis at 1 mg/ml after 24 hrs by agar-well diffusion method. To be noted: for zone of inhibition at 1000 µg/mL: Bacillus subtilis, 24 h, read-out: DIZ. The format is functional.
The test system of data set [7] is Artemia salina. Nature of the data set: Toxicity in Artemia salina nauplii assessed as mortality after 24 hrs. The class given is organism-based. To be noted: in vivo.
For data set [8], the system named is Aspergillus flavus. Nature of the data set: Antifungal activity against Aspergillus flavus after 7 days. The class given is functional. To be noted: 168 h.
The test system of data set [9] is Trichophyton longifusum. Description: Antifungal activity against Trichophyton longifusum after 7 days. The class given is functional. To be noted: 168 h.
For data set [10], the system named is Candida albicans. Description: Antifungal activity against Candida albicans after 7 days. To be noted: 168 h.
The subject of data set [11] is Microsporum canis. Nature of the data set: Antifungal activity against Microsporum canis after 7 days. The format is functional. To be noted: 168 h.
Data set [12] deals with Fusarium solani. Nature of the data set: Antifungal activity against Fusarium solani after 7 days. The class given is functional. To be noted: 168 h.
For data set [13], the system named is Nakaseomyces glabratus. Nature of the data set: Antifungal activity against Candida glabrata after 7 days. The class given is functional. To be noted: 168 h.

Molecules are shown by their SMILES. Values after ≈ are worked out from the molar mass of the structure shown. Bounds are passed on as bounds.

For `C[C@@H](O)[C@H]1C(=O)N2C(C(=O)O)=C(SCCNC=N)C[C@H]12` [IMIPENEM ANHYDROUS], the zone of inhibition at 1000 µg/mL in data set [1] is 29 mm; in data set [2], 31 mm; in data set [3] it was 30 mm; in data set [4] it was 29 mm; in [5], 26 mm; in data set [6] it was 28 mm.
As to `C/C(=N\c1n[nH]c(/N=C(\C)c2ccccn2)n1)c1ccccn1`, the LD50 in data set [7] is listed as over 3.341 ×10⁻⁴ M/ml. The Activity was found to be 58% in data set [1]; 39% in [2]; 58% in data set [3]; 58% in data set [4]; 39% in data set [5]; 39% in data set [6]. Further, the zone of inhibition at 1000 µg/mL in [1] turned out to be 17 mm; in data set [2], 12 mm; in data set [3], 18 mm; in [4], 16 mm; in data set [5] it was 11 mm; in data set [6] it was 13 mm.
In the case of `C[C@@H]1[C@H](O)[C@@H](C)/C=C/C=C/C=C/C=C/C=C/C=C/C=C/[C@H](O[C@@H]2O[C@H](C)[C@@H](O)[C@H](N)[C@@H]2O)C[C@@H]2O[C@](O)(C[C@@H](O)C[C@@H](O)[C@H](O)CC[C@@H](O)C[C@@H](O)CC(=O)O[C@H]1C)C[C@H](O)[C@H]2C(=O)O` [AMPHOTERICIN B], the minimum inhibitory concentration (MIC) in data set [8] came out at 20 µg/mL (≈ 21.6 µM).
As to `C(=N\c1n[nH]c(/N=C/c2ccc[nH]2)n1)/c1ccc[nH]1`, the LD50 in data set [7] is over 6.897 ×10⁻⁴ M/ml. Besides, the Activity in [1] stood at 55%; in data set [2], 39%; in data set [3], 39%; in data set [4], 55%; in [5], 39%; in [6], 39%. Further, the zone of inhibition at 1000 µg/mL turned out to be 17 mm in data set [1]; 12 mm in [2]; 14 mm in data set [3]; 16 mm in data set [4]; 11 mm in data set [5]; 13 mm in [6].
Regarding `Oc1ccc2ccccc2c1/C=N/c1n[nH]c(/N=C/c2c(O)ccc3ccccc23)n1`, the LD50 in data set [7] was over 7.614 ×10⁻⁴ M/ml. The Activity in [1] turned out to be 35%; in data set [2] it was 35%; in data set [3] it was 35%; in [4], 35%; in data set [5], 35%; in [6], 57%. Further, the zone of inhibition at 1000 µg/mL in data set [1] was 11 mm; in data set [2], 13 mm; in data set [3], 11 mm; in [4], 14 mm; in [5], 12 mm; in data set [6], 16 mm.
As to `C(=N\c1n[nH]c(/N=C/c2ccccn2)n1)/c1ccccn1`, the LD50 in [7] was over 4.128 ×10⁻⁴ M/ml. Also, the Activity in [1] was determined as 43%; in data set [2], 58%; in data set [3], 43%; in data set [4], 43%; in data set [5] it was 58%; in data set [6], 43%. In addition, the zone of inhibition at 1000 µg/mL in data set [1] was determined as 15 mm; in data set [2], 18 mm; in data set [3] it was 13 mm; in data set [4] it was 11 mm; in [5], 16 mm; in [6], 12 mm.
In the case of `Clc1ccc(COC(Cn2ccnc2)c2ccc(Cl)cc2Cl)c(Cl)c1` (centres undefined) [MICONAZOLE], the MIC in data set [9] was 70 µg/mL (≈ 168 µM); in data set [10], 111 µg/mL (≈ 266 µM); in data set [11], 98.4 µg/mL (≈ 236 µM); in data set [12], 73.2 µg/mL (≈ 176 µM); in data set [13] it was 111 µg/mL (≈ 266 µM).

The MIC is the least concentration at which growth counts as inhibited. Higher therefore signals a need for much substance.
